What was measured:
[1] = target: T1, G119S AChE1 (Culex pipiens, UniProt Q86GC8, G247S); type: biochemical; conditions: dissociation constant of enzyme-inhibitor complex; five independent replicates; read-out: Kic G119S
T1 construct: made in house; host or cells: Drosophila S2 cells
Description: (§1) To identify inhibitors of G119S AChE1, we screened a 3,000-compound chemical library using an assay adapted to a microplate format, [26]. […] For simplification, these compounds will be termed from now as PTF (PyrimidineTrione Furan-substituted) and were classified depending on the substituted positions (Table S1).
Reversibility was tested using a rapid dilution procedure. Residual activity of WT (white bars) and G119S (grey bars) AChE1 were measured after 15 min incubation in presence of inhibitors (striped bars) and are expressed as percentages of control activity. […] Assays were then diluted ten times and residual activity was measured (open bars). Means and standard errors for three independent experiments are shown. (PDF) Click here for additional data file.
(§2) WT and G119S recombinant AChE1s were incubated with 0.25 mM, 0.5 mM or 1 mM inhibitor. Residual activity of G119S (A and C) and WT (B and D) AChE1 was measured in the presence of various concentrations of PTF-20 and substrates. Enzymatic activity was analyzed using the graphical method developed by Dixon, representing reciprocal rates (1/v) (A and B) or reciprocal rates multiplied by substrate concentrations ([S]/v) (C and D) as a function of inhibitor concentration. (PDF) Click here for additional data file.
(§3) Table S3. Dissociation constants (Kic) of enzyme-inhibitor complexes.
(§4) a numbers refer to Table S1
(§5) b data were measured from five independent replicates.
(§6) c competitive inhibitor reference

[2] = system: C. pipiens Ducos strain larvae; assay: Larval bioassay, Ducos strain (ace-1 duplication); type: in vivo, Culex pipiens; conditions: C. pipiens OP-resistant ace-1 D (duplication) larvae
Excerpt: (§7) Three C. pipiens strains were used: the susceptible reference Slab strain, homozygous for ace-1 ^S [39], the resistant reference SR strain, carrying the genetical background of Slab but homozygous for the G119S mutation, allele ace-1 ^R [21] and the Ducos strain, carrying the genetical background of Slab but homozygous for an ace-1 duplication, with one ace-1^S and ace-1^R copy in tandem. Culex pipiens heterozygous larvae (Slab×SR) were obtained by crossing Slab males and SR females. Two A. gambiae reference strains (S molecular form) were used: the susceptible strain Kisumu, homozygous for ace-1 ^S, collected in Kenya in 1953 and maintained since then under laboratory conditions and the resistant Acerkis strain, carrying the genetical background of Kisumu but homozygous for an ace-1^R allele from a population collected in Bobo-Dioulasso, Burkina Faso [41].
(§8) Insecticidal activity was determined by performing bioassays on fourth-instar larvae as described in [42]. Each compound was dissolved in ethanol. Propoxur (CX) and chlorpyrifos (OP) were used as references. For each compound, we first tested mortality after a 24-hour exposure at 300 µM. […] Mortality data were analyzed by the log-probit program. This program takes into account natural mortality and provides lethal doses (LD) and slopes for each mortality line; it also computes resistance ratios (RR) for each LD, with 95% confidence intervals.

[3] = system: C. pipiens Slab strain larvae; assay: Larval bioassay, Slab strain (OP-susceptible); conditions: for LD50 Slab: C. pipiens OP-susceptible ace-1 S/S larvae, four to five replicates; for Mortality at 300 µM, Slab: fourth-instar larvae, 24 hours exposure
Excerpt: as §7, §8

[4] = system: C. pipiens F1 (SR×Slab) heterozygous larvae; assay: Larval bioassay, heterozygous F1 (SR×Slab); type: in vivo, Culex pipiens; conditions: C. pipiens heterozygous ace-1 R/ace-1 S larvae
Excerpt: as §7, §8

[5] = target: T2, WT AChE1 (Culex pipiens, UniProt Q86GC8); assay: AChE assay (Ellman), dose-response on recombinant WT AChE1; type: biochemical; parameters: made in house; host or cells: Drosophila S2 cells; conditions: recombinant wild-type C. pipiens AChE1; 15 min incubation; acetylthiocholine; read-out: IC50 WT
Description: (§9) Production of C. pipiens WT and mutated AChE1s in Drosophila S2 cells was already described. The chemical library (ChemBridge, 3,000 compounds) screening was performed in duplicate on G119S recombinant AChE1. Chemicals were made soluble in ethanol or dimethylsulphoxide (DMSO), and then diluted at 300 µM in ethanol for storage. Compounds (30 µM final concentration) were incubated for 15 min at room temperature with 100 µl of G119S recombinant AChE1 then 100 µl of substrate (acetylthiocholine, 1.6 mM, Sigma-Aldrich) was added and the residual activity was quantified by measuring the optical density at 412 nm, as described by Ellman et al.. PTF analogs were analyzed in dose-response experiments (10-fold serial dilutions from 3 mM to 30 nM), using recombinant WT and G119S AChE1 or mosquito head extracts (heads cut from frozen mosquitoes, homogenized in 400 µl PB containing 1% Triton X-100 and cleared by centrifugation at 9,000×g for 3 min). Depending on compound availability, two to five replicates were performed with distinct batches of enzyme. […] IC50 was estimated by nonlinear least square regression. IC50 was also measured on AChE1 from susceptible and resistant mosquito larvae extracts.

[6] = target: T3, F290V AChE1 (Culex pipiens, UniProt Q86GC8, F416V); type: biochemical; conditions: F290V OP-insensitive AChE1
T3 construct: made in house; host or cells: Drosophila S2 cells
Description: as §9, §4
(§10) b IC50 values were determined from regression analysis of log-concentrations versus

[7] = target: T4, F331W AChE1 (Culex pipiens, UniProt Q86GC8, F457W); type: biochemical; conditions: F331W OP-insensitive AChE1
T4 construct: made in house; host or cells: Drosophila S2 cells
Description: as §9, §4, §10

[8] = target: T1, G119S AChE1; assay: biochemical; type: biochemical; conditions: recombinant OP-insensitive G119S C. pipiens AChE1; 15 min incubation; acetylthiocholine; read-out: IC50 G119S
Description: as §9, with “Compounds (30 µM final concentration) were incubated for 15 min at room temperature with 100 µl of G119S recombinant AChE1 then 100 µl of substrate (acetylthiocholine, 1.6 mM, Sigma-Aldrich) was added and the residual activity was quantified by measuring the optical density at 412 nm, as described by Ellman et al..” left out

[9] = system: C. pipiens SR strain larvae; assay: Larval bioassay, SR strain (OP-resistant); conditions: for LD50 SR: C. pipiens OP-resistant ace-1 R/R larvae; for Mortality at 300 µM, SR: fourth-instar larvae, 24 hours exposure
Excerpt: Three C. pipiens strains were used: the susceptible reference Slab strain, homozygous for ace-1 ^S [39], the resistant reference SR strain, carrying the genetical background of Slab but homozygous for the G119S mutation, allele ace-1 ^R [21] and the Ducos strain, carrying the genetical background of Slab but homozygous for an ace-1 duplication, with one ace-1^S and ace-1^R copy in tandem. Culex pipiens heterozygous larvae (Slab×SR) were obtained by crossing Slab males and SR females.
Insecticidal activity was determined by performing bioassays on fourth-instar larvae as described in [42]. Each compound was dissolved in ethanol. Propoxur (CX) and chlorpyrifos (OP) were used as references. For each compound, we first tested mortality after a 24-hour exposure at 300 µM. […] Mortality data were analyzed by the log-probit program.

[10] = target: T2, WT AChE1; conditions: read-out: Kic WT; dissociation constant of enzyme-inhibitor complex; five independent replicates
Description: as §1, §2, §3, §4, §5, §6

[11] = system: A. gambiae Acerkis strain larvae; assay: Larval bioassay, Acerkis strain (OP-resistant); type: in vivo, Anopheles gambiae; conditions: A. gambiae OP-resistant ace-1 R/R larvae
Excerpt: as §7, §8

[12] = system: A. gambiae Kisumu strain larvae; assay: Larval bioassay, Kisumu strain (OP-susceptible); type: in vivo, Anopheles gambiae; conditions: A. gambiae OP-susceptible ace-1 S/S larvae
Excerpt: as §7, §8

Row | Structure (SMILES) | Ki [1] | LD50 Ducos [2] | LD50 Slab [3] | Mortality at 300 µM, Slab [3] | LD50 F1 (SR×Slab) [4] | IC50 [5] | IC50 [6] | IC50 [7] | IC50 [8] | LD50 SR [9] | Mortality at 300 µM, SR [9] | Ki [10] | LD50 Acerkis [11] | LD50 Kisumu [12]
1 | Cc1ccc(C=C2C(=O)N(C)C(=O)N(C)C2=O)o1 [PTF-39] | 41.9 ± 2.3 µM | 201.9 µM | 576.0 µM | 29% | 110.0 µM | 74.3 µM | 13.9 µM | 8.7 µM | 7.6 µM | 200.0 µM | 81% | 130 ± 9.2 µM | – | –
2 | Cc1ccc(C=C2C(=O)NC(=O)N(c3ccc(Cl)cc3)C2=O)o1 [PTF-20] | 5.6 ± 0.1 µM | – | 762.0 µM | 43% | – | 330 µM | 14.5 µM | 8.3 µM | 27.5 µM | 194.0 µM | 94% | 56.1 ± 1.8 µM | – | –
3 | CCOP(=S)(OCC)Oc1nc(Cl)c(Cl)cc1Cl [Chlorpyrifos, reference compound] | – | 0.0022 µM | 0.00019 µM | – | 0.0015 µM | – | – | – | – | 0.021 µM | – | – | 0.6 µM | 0.00095 µM
4 | O=C1NC(=S)N(c2ccccc2)C(=O)C1=Cc1ccco1 [PTF-63] | – | – | – | 0% | – | 151 µM | – | – | 98 µM | – | 0% | – | – | –
5 | O=C1NC(=O)N(c2ccccc2)C(=O)C1=Cc1ccc(-c2cccc(C(=O)O)c2)s1 [PTF-69] | – | – | – | 0% | – | 43.9 µM | – | – | 4.6 µM | – | 0% | – | – | –
6 | CCc1ccc(N2C(=O)NC(=O)C(=Cc3ccc(C)o3)C2=O)cc1 [PTF-8] | – | – | – | 60% | – | 312 µM | – | – | 19 µM | – | 100% | – | – | –
7 | CN1C(=O)C(=Cc2ccc([N+](=O)[O-])o2)C(=O)N(C)C1=O [PTF-40] | – | – | – | 0% | – | 83 µM | – | – | 55 µM | – | 0% | – | – | –
8 | Cc1ccc(C=C2C(=O)NC(=O)N(c3ccccc3C)C2=O)o1 [PTF-5] | – | – | – | 0% | – | 1.4 µM | – | – | 1.1 µM | – | 0% | – | – | –
9 | N=C1NC(=O)C(=Cc2ccco2)C(=O)N1c1ccccc1 [PTF-64] | – | – | – | 0% | – | 56 µM | – | – | 49.5 µM | – | 0% | – | – | –
10 | COc1ccc(N2C(=O)C(=Cc3ccc(C)o3)C(=O)NC2=S)c(OC)c1 [PTF-30] | – | – | – | 25% | – | 2.8 µM | – | – | 1.3 µM | – | 25% | – | – | –
11 | CCCCN1C(=O)C(=Cc2ccc(C)o2)C(=O)NC1=S [PTF-23] | – | – | – | 24% | – | 12.1 µM | – | – | 15.5 µM | – | 60% | – | – | –
12 | CN1C(=O)C(=Cc2ccc(N3CCOCC3)o2)C(=O)N(C)C1=O [PTF-50] | – | – | – | 0% | – | 260 µM | – | – | 145 µM | – | 0% | – | – | –
13 | Cc1ccc(C=C2C(=O)NC(=S)N(CC3CCCO3)C2=O)o1 (centres unmarked) [PTF-32] | – | – | – | 0% | – | 2.1 µM | – | – | 2.3 µM | – | 0% | – | – | –
14 | COc1ccccc1N1C(=O)C(=Cc2ccc(C)o2)C(=O)NC1=S [PTF-28] | – | – | – | 0% | – | 2.1 µM | – | – | 1.8 µM | – | 0% | – | – | –
15 | Cc1ccc(C=C2C(=O)NC(=S)N(CCc3ccc(F)cc3)C2=O)o1 [PTF-34] | – | – | – | 0% | – | 24 µM | – | – | 38 µM | – | 0% | – | – | –
16 | C=CCN1C(=O)NC(=O)C(=Cc2ccc(C)s2)C1=O [PTF-66] | – | – | – | 63% | – | 91.6 µM | – | – | 51 µM | – | 100% | – | – | –

— publication PMC3466212, “Novel AChE Inhibitors for Sustainable Insecticide Resistance Management” (PLoS ONE, 2012)
